From PubChem BioAssay AID256 (DTP/NCI, 2004)
Inconclusive results and toxic doses are left out. How the source made its calls: active means survival T/C of 150% or more; inactive means T/C below 125% in these data.

Tested on: CD2F1 mice, L1210 leukemia ip, survival T/C
Experiment: NCI In Vivo Anticancer Drug Screen. Data for tumor model L1210 Leukemia (intraperitoneal) in CD2F1 (CDF1) mice
Details: higher = longer survival
Summary of the method: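 Compound-dosed mice with transplantable tumor versus matched vehicle controls; endpoint ratio T/C reported.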

[1] = endpoint: mean survival time, dose: 100.0 mg/kg/injection, schedule: Q01DX001 (ip), vehicle: saline with Tween-80

Measured: T/C

C=C(C)CN=C=S
inactive: endpoint: mean survival time, dose: 100.0 mg/kg/injection, schedule: Q04DX003 (ip), vehicle: saline with Tween-80 98 % of control

Nc1cc(Sc2ccc(Cl)cc2)nc(N)n1
inactive: endpoint: mean survival time, dose: 25.0 mg/kg/injection, schedule: Q01DX001 (ip), vehicle: saline with Tween-80 102 % of control | endpoint: mean survival time, dose: 50.0 mg/kg/injection, schedule: Q01DX001 (ip), vehicle: saline with Tween-80 102 % of control | [1] 98 % of control

O=S(=O)(Nc1ccc(Cc2ccc(NS(=O)(=O)c3ccccc3)cc2)cc1)c1ccccc1
inactive: [1] 88 % of control | endpoint: mean survival time, dose: 200.0 mg/kg/injection, schedule: Q01DX001 (ip), vehicle: saline with Tween-80 90 % of control | endpoint: mean survival time, dose: 400.0 mg/kg/injection, schedule: Q01DX001 (ip), vehicle: saline with Tween-80 88 % of control

Cn1c(=O)[nH]c2c(nc(-c3ccc(Cl)cc3)n2C)c1=O
inactive: endpoint: mean survival time, dose: 12.5 mg/kg/injection, schedule: Q01DX005 (ip), vehicle: other 91 % of control | endpoint: mean survival time, dose: 25.0 mg/kg/injection, schedule: Q01DX005 (ip), vehicle: other 100 % of control | endpoint: mean survival time, dose: 50.0 mg/kg/injection, schedule: Q01DX005 (ip), vehicle: other 95 % of control | endpoint: mean survival time, dose: 100.0 mg/kg/injection, schedule: Q01DX005 (ip), vehicle: other 95 % of control | endpoint: mean survival time, dose: 200.0 mg/kg/injection, schedule: Q01DX005 (ip), vehicle: other 100 % of control

COc1nc(NC2OCC(O)C(O)C2O)c(I)c(=O)n1C (centres undefined)
inactive: endpoint: median survival time, dose: 12.5 mg/kg/injection, schedule: Q01DX005 (ip), vehicle: saline with Tween-80 101 % of control | endpoint: median survival time, dose: 25.0 mg/kg/injection, schedule: Q01DX005 (ip), vehicle: saline with Tween-80 100 % of control | endpoint: median survival time, dose: 50.0 mg/kg/injection, schedule: Q01DX005 (ip), vehicle: saline with Tween-80 100 % of control | endpoint: median survival time, dose: 100.0 mg/kg/injection, schedule: Q01DX005 (ip), vehicle: saline with Tween-80 101 % of control | endpoint: median survival time, dose: 200.0 mg/kg/injection, schedule: Q01DX005 (ip), vehicle: saline with Tween-80 100 % of control

C=C1C(=O)OCC2CCCCC12C (centres undefined)
inactive: endpoint: mean survival time, dose: 1.25 mg/kg/injection, schedule: Q01DX009 (ip), vehicle: saline with Tween-80 98 % of control | endpoint: mean survival time, dose: 2.5 mg/kg/injection, schedule: Q01DX009 (ip), vehicle: saline with Tween-80 101 % of control | endpoint: mean survival time, dose: 5.0 mg/kg/injection, schedule: Q01DX009 (ip), vehicle: saline with Tween-80 101 % of control | endpoint: mean survival time, dose: 10.0 mg/kg/injection, schedule: Q01DX009 (ip), vehicle: saline with Tween-80 98 % of control

CN(CCCCl)CCCCl
inactive: endpoint: mean survival time, dose: 75.0 mg/kg/injection, schedule: Q01DX001 (ip), vehicle: saline 103 % of control

CCC[CH2][Sn]1([CH2]CCC)[O]C2C(CO)OC(n3c(Br)c(C#N)c4c(N)ncnc43)C2[O]1 (centres undefined)
inactive: endpoint: mean survival time, dose: 1.56 mg/kg/injection, schedule: Q01DX005 (ip), vehicle: distilled water + Tween-80 93 % of control | endpoint: mean survival time, dose: 3.13 mg/kg/injection, schedule: Q01DX005 (ip), vehicle: distilled water + Tween-80 98 % of control
